Laboratory results taken from patent US7709533B2, “Imines as ion channel modulators” (Icagen, Inc., priority 2005, dated 2010).

The molecules below were run against T1, human intermediate-conductance, calcium-activated K+ channels (h-IK1) (Homo sapiens, UniProt O15554) (assay: Rubidium efflux assay (86Rb+ efflux, CHO-K1 cells expressing h-IK1)). Settings: hIK1 in CHO-K1 cells; 86Rb+ efflux stimulated with ionomycin; drug 0.01-30 μM, 6 min preincubation, 10 min efflux; read-out: IK1 Inhibitory Activity.
T1 construct: expressed in transfected cells; host or cells: CHO-K1 (ATCC CCL-61), kept under G-418 selection
Format: cell-based
Experimental: CHO-K1 cells (American Type Culture Collection, CCL-61) expressing human intermediate-conductance, calcium-activated K^+ channels (h-IK1) are cultured in Ham's F-12 medium (HyClone) supplemented with 10% heat inactivated fetal bovine serum (Nova-Tech) and 400 μg/mL G-418 (Geneticin, Life Technologies), in an incubator at 37° C. with a humidified atmosphere of 5% CO2. Cells are typically sub-cultured twice per week. When the culture flask reaches 70%-90% confluency, the culture medium is removed, cells are rinsed twice with calcium and magnesium-free Dulbecco's phospate buffed saline (PBS) and a 0.05% trypsin/0.5 mM EDTA in HBSS solution is added until cells begin to round up (typically 2-5 min). Twenty four hours prior to the experiment, cells are removed from the culture flask and resuspended in Ham's F-12 medium supplemented with 10% heat inactivated fetal bovine serum, 50 μg/mL streptomycin, 50 U/mL penicillin, 10 mM HEPES, pH 7.2, and plated on 96 well, cell culture treated, flat bottomed trays (TPP 96, 4×10^6 cells per 96 well plate; 100 μL/well). Cells are loaded with ^86Rb^+ by incubating the cells overnight in culture medium containing 1 μCi/ml ^86RbCl (Perkin-Elmer) using a Labsystems Multidrop. On the day of the experiment, Culture media is removed and the cells are washed 4 times with 100 μL per well of zero Ca^2+ Earl's Balanced Salt Solution (EBSS)[composition (mM): NaCl (138), KCl (5.4), MgCl2 (1), glucose (10), HEPES (10), pH 7.4 with 10N NaOH]. Cells were preincubated with drug (0.01-30 μM) in low Ca^2+ EBSS, [composition (mM): NaCl (138), CaCl2 (0.25), KCl (5.4), MgCl2 (1), glucose (10), HEPES (10), pH 7.4 with 10N NaOH] for 6 min. ^86Rb^+ efflux is stimulated by exposing cells to regular EBSS [composition (mM): NaCl (138), CaCl2 (1.8), KCl (5.4), MgCl2 (1), glucose (10), HEPES (10), pH 7.4 with 10N NaOH] supplemented with […] ionomycin (Calbiochem), in the continued presence of drug. After a 10 min efflux period, the EBSS/ionomycin solution is removed from the cells and the ^86Rb^+ content determined by Cherenkov counting (Wallac 1450 Microbeta Trilux liquid scintillation and luminescence counter). Cells are then lysed with 100 μL 0.1% SDS solution per well, and the ^86Rb^+ content of the lysate determined. Percent ^86Rb^+ efflux is calculated according to the following formula: (^86Rb^+ content in EBSS/(^86Rb^+ content in EBSS+^86Rb^+ content of the lysate))×100.

For `N=C(NO)C(c1ccccc1)(c1ccccc1)c1ccccc1Cl` [2-(2-Chloro-phenyl)-N-hydroxy-2,2-diphenyl-acetamidine], which IC50 is on record?
The IC50 was under 0.5 µM.

How did the IC50 turn out when `N=C(NO)C(c1ccccc1)(c1ccc(F)cc1)c1ccccc1F` (centres unmarked) [Example 1, 2-(2-Fluoro-phenyl)-2-(4-fluoro-phenyl)-N-hydroxy-2-phenyl-acetamidine] was run?
Its IC50 is under 0.5 µM.

With `N=C(NO)C(c1ccccc1)(c1ccc(F)cc1)c1ccc(F)cc1` [Example 2, 2,2-Bis-(4-fluoro-phenyl)-N-hydroxy-2-phenyl-acetamidine] as the molecule, how does the IC50 read?
The IC50 was under 0.5 µM.

Which IC50 does the source give for `N=C(NO)C(c1ccc(F)cc1)(c1ccc(F)cc1)c1ccc(F)cc1` [Example 3, 2,2,2-Tris-(4-fluoro-phenyl)-N-hydroxy-acetamidine] here?
Its IC50 is under 0.5 µM.

`CCONC(=N)C(c1ccc(F)cc1)(c1ccc(F)cc1)c1ccc(F)cc1` [Example 4, N-Ethoxy-2,2,2-tris-(4-fluoro-phenyl)-acetamidine] was tested. Which IC50 did it give?
The IC50 was under 0.5 µM.

For `N=C(NO)C(c1ccc(F)cc1)(c1ccc(F)cc1)c1ccccc1Cl` [Example 5, 2-(2-Chloro-phenyl)-2,2-bis-(4-fluoro-phenyl)-N-hydroxy-acetamidine], which IC50 is on record?
Its IC50 is under 0.5 µM.

Which IC50 does the source give for `ON=CC(c1ccccc1)(c1ccccc1)c1ccccc1Cl` [Example 6, (2-Chloro-phenyl)-diphenyl-acetaldehyde oxime] here?
The IC50 was under 0.5 µM.

With `CON=CC(c1ccccc1)(c1ccccc1)c1ccccc1Cl` [Example 7, (2-Chloro-phenyl)-diphenyl-acetaldehyde O-methyl-oxime] as the molecule, how does the IC50 read?
Its IC50 is under 0.5 µM.

How did the IC50 turn out when `CONC(=N)C(c1ccccc1)(c1ccc(F)cc1)c1ccc(F)cc1` [Example 8, 2,2-Bis-(4-fluoro-phenyl)-N-methoxy-2-phenyl-acetamidine] was run?
Its IC50 is under 0.5 µM.

How did the IC50 turn out when `N=C(NN)C(c1ccccc1)(c1ccc(F)cc1)c1ccc(F)cc1` [Example 9, 2,2-Bis-(4-fluoro-phenyl)-N-amino-2-phenyl-acetamidine] was run?
Its IC50 is 0.5 to 1 µM.

With `N=C(NN)C(c1ccc(F)cc1)(c1ccc(F)cc1)c1ccc(F)cc1` [Example 10, 2,2,2-Tris-(4-fluoro-phenyl)-N-amino-acetamidine] as the molecule, how does the IC50 read?
The IC50 was 0.5 to 1 µM.

`N=C(NO)C(c1ccccc1)(c1ccccc1)c1ccccc1` [Example 11, N-Hydroxy-2,2,2-triphenyl-acetamidine] was tested. Which IC50 did it give?
Its IC50 is 0.5 to 1 µM.

How did the IC50 turn out when `COc1ccc(C(C(=N)NO)(c2ccccc2)c2ccccc2)cc1` [Example 12, N-Hydroxy-2-(4-methoxy-phenyl)-2,2-diphenyl-acetamidine] was run?
The IC50 was 0.5 to 1 µM.

How did the IC50 turn out when `N=C(NO)C(c1ccccc1)(c1ccccc1)c1cccc(F)n1` [Example 13, 2-(6-Fluoro-pyridin-2-yl)-N-hydroxy-2,2-diphenyl-acetamidine] was run?
The IC50 was 0.5 to 1 µM.

For `N=C(NO)C(c1cccc(F)c1)(c1cccc(F)n1)c1cccc(F)n1` [Example 14, 2-(3-Fluoro-phenyl)-2,2-bis-(6-fluoro-pyridin-2-yl)-N-hydroxy-acetamidine], which IC50 is on record?
The IC50 was 1 to 10 µM.

How did the IC50 turn out when `N=C(N)C(c1cccc(F)n1)(c1cccc(F)n1)c1cccc(F)n1` [Example 15, 2,2,2-Tris-(6-fluoro-pyridin-2-yl)-acetamidine] was run?
The IC50 was 1 to 10 µM.

With `Cc1nc(C(c2ccccc2)(c2ccccc2)c2cccc(F)n2)no1` [Example 16, 2-Fluoro-6-[(5-methyl-[1,2,4]oxadiazol-3-yl)-diphenyl-methyl]-pyridine] as the molecule, how does the IC50 read?
The IC50 was 1 to 10 µM.

For `Cc1ccc(C(C(=N)N)(c2cccc(F)c2)c2cccc(F)c2)cn1` [Example 17, 2,2-Bis-(3-fluoro-phenyl)-2-(6-methyl-pyridin-3-yl)-acetamidine], which IC50 is on record?
The IC50 was 1 to 10 µM.

`N=C(N)C(c1ccc(F)cc1)(c1ccc(F)cc1)c1ccc(F)cc1` [Example 18, 2,2,2-Tris-(4-fluoro-phenyl)-acetamidine] was tested. Which IC50 did it give?
The IC50 was 1 to 10 µM.

For `CONC(=N)C(c1ccc(F)cc1)(c1ccc(F)cc1)c1ccc(F)cc1` [Example 19, 2,2,2-Tris-(4-fluoro-phenyl)-N-methoxy-acetamidine], which IC50 is on record?
Its IC50 is 1 to 10 µM.

With `CC(C)ONC(=N)C(c1ccc(F)cc1)(c1ccc(F)cc1)c1ccc(F)cc1` [Example 20, 2,2,2-Tris-(4-fluoro-phenyl)-N-isopropoxy-acetamidine] as the molecule, how does the IC50 read?
Its IC50 is 1 to 10 µM.

With `N=C(N)C(c1ccccc1)(c1ccc(F)cc1)c1ccc(F)cc1` [Example 21, 2,2-Bis-(4-fluoro-phenyl)-2-phenyl-acetamidine] as the molecule, how does the IC50 read?
The IC50 was 1 to 10 µM.

With `N=C(N)C(c1ccccc1)(c1ccccc1)c1ccccc1` [Example 22, 2,2,2-Triphenyl-acetamidine] as the molecule, how does the IC50 read?
The IC50 was 1 to 10 µM.

How did the IC50 turn out when `COc1ccc(C(C(=N)NO)(c2ccccc2)c2ccc(OC)cc2)cc1` [Example 23, N-Hydroxy-2,2-bis-(4-methoxy-phenyl)-2-phenyl-acetamidine] was run?
The IC50 was 1 to 10 µM.

`N=C(NO)C(c1ccccc1)(c1ccccc1)c1ccc(O)cc1` [Example 24, N-Hydroxy-2-(4-hydroxy-phenyl)-2,2-diphenyl-acetamidine] was tested. Which IC50 did it give?
The IC50 was 1 to 10 µM.

With `CC(=NN)C(c1ccccc1)(c1ccccc1)c1ccccc1` [Example 25, (1-Methyl-2,2,2-triphenyl-ethylidene)-hydrazine] as the molecule, how does the IC50 read?
Its IC50 is 1 to 10 µM.

For `CON=C(C)C(c1ccccc1)(c1ccccc1)c1ccccc1` [Example 26, 1,1,1-Triphenyl-propan-2-one O-methyl-oxime], which IC50 is on record?
Its IC50 is 1 to 10 µM.

Which IC50 does the source give for `COC(=N)C(c1ccc(F)cc1)(c1ccc(F)cc1)c1ccc(F)cc1` [Example 27, 2,2,2-Tris-(4-fluoro-phenyl)-acetimidic acid methyl ester] here?
Its IC50 is 1 to 10 µM.

How did the IC50 turn out when `COC(=N)C(c1ccccc1)(c1ccc(F)cc1)c1ccc(F)cc1` [Example 28, 2,2-Bis-(4-fluoro-phenyl)-2-phenyl-acetimidic acid methyl ester] was run?
Its IC50 is 1 to 10 µM.

Which IC50 does the source give for `CN=C(OC)C(c1ccccc1)(c1ccc(F)cc1)c1ccc(F)cc1` [Example 29, 2,2-Bis-(4-fluoro-phenyl)-N-methyl-2-phenyl-acetimidic acid methyl ester] here?
Its IC50 is 1 to 10 µM.

For `N=C(NO)C(c1cccc(F)n1)(c1cccc(F)n1)c1cccc(F)n1` [Example 30, 2,2,2-Tris-(6-fluoro-pyridin-2-yl)-N-hydroxy-acetamidine], which IC50 is on record?
Its IC50 is over 10 µM.

For `COc1ccc(C(C(=N)NO)(c2ccc(OC)cc2)c2ccc(OC)cc2)cc1` [Example 31, N-Hydroxy-2,2,2-tris-(4-methoxy-phenyl)-acetamidine], which IC50 is on record?
The IC50 was over 10 µM.

`N=C(NO)C(c1ccccc1)(c1ccc(O)cc1)c1ccc(O)cc1` [Example 32, N-Hydroxy-2,2-bis-(4-hydroxy-phenyl)-2-phenyl-acetamidine] was tested. Which IC50 did it give?
Its IC50 is over 10 µM.

For `CCON=C(C)C(c1ccccc1)(c1ccccc1)c1ccccc1` [Example 33, 1,1,1-Triphenyl-propan-2-one O-ethyl-oxime], which IC50 is on record?
Its IC50 is over 10 µM.

With `CC(=NO)C(c1ccccc1)(c1ccccc1)c1ccccc1` [Example 34, 1,1,1-Triphenyl-propan-2-one oxime] as the molecule, how does the IC50 read?
The IC50 was over 10 µM.
